From patent US20220016115A1, “USP19 INHIBITORS FOR USE IN THERAPY” (ALMAC DISCOVERY LIMITED, priority 2018, published 2022)

target: T1, USP19 (Homo sapiens, UniProt O94966); assay: USP19 fluorescence polarisation (FP) homogeneous assay; format: biochemical; parameters: Full-length USP19 was purchased from Boston Biochem (E-576); purchased Boston Biochem E-576; settings: Ubiquitin-Lys-TAMRA substrate, full-length USP19 2.5 nM, average of at least two duplicate experiments
T1 sequence (O94966 1-1318): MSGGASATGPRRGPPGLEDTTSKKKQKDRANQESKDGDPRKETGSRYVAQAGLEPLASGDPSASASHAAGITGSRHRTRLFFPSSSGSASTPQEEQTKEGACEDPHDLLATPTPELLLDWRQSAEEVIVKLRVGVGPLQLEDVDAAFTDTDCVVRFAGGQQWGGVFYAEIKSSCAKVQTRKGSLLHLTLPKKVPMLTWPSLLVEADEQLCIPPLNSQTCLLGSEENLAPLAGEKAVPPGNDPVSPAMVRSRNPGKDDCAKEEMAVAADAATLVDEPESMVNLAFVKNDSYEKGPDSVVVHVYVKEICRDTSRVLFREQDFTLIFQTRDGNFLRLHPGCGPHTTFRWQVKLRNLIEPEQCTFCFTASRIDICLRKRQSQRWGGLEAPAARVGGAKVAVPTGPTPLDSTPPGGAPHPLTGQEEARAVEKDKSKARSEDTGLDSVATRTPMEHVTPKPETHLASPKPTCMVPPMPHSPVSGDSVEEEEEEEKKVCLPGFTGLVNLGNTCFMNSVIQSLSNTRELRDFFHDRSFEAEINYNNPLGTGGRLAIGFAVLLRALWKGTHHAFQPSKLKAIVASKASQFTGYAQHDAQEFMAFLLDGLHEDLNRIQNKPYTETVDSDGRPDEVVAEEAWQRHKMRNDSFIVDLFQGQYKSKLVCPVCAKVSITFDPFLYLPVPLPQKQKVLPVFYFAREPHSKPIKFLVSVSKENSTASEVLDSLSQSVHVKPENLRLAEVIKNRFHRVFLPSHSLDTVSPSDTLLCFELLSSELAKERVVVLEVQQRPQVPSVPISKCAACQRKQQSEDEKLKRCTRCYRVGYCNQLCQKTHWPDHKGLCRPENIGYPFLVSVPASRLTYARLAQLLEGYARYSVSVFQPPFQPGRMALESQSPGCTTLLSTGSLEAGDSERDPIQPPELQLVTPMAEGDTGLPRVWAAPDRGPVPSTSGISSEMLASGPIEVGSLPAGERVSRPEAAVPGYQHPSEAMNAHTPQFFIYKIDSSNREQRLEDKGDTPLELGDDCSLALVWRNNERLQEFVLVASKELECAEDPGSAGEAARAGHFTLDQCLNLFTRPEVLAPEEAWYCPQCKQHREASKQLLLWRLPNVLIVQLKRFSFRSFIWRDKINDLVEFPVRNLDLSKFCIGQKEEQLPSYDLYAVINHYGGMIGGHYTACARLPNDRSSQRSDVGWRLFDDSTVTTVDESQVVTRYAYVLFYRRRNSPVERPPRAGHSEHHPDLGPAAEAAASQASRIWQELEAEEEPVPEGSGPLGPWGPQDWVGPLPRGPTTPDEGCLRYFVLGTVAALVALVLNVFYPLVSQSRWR
Description: Unless otherwise stated, all other reagents were purchased from Sigma. Enzymatic reactions were conducted in black flat bottom polystyrene 384-well plates (Nunc) and 30 μL total volume. […] Inhibitors were stored as 10 mM DMSO stocks in an inert environment (low humidity, dark, low oxygen, room temperature) using the Storage Pod System and serial dilutions were prepared in buffer just prior to the assay (from 200 μM to 2 μM, 8-18 data point curve). Following incubation at RT for 30 min, the enzymatic reactions were initiated by dispensing the Ub substrate (500 nM, 10 μL). FP was measured every 15 min over a period of 90 min (within the linear range of the assay) using a Synergy 4 plate reader (BioTek) exciting at 530 nm and measuring the amount of parallel and perpendicular light at 575 nm. The FP signal was subsequently normalised to the no compound control.

IC50 | Compound
< 500 nM | C[C@H](CC1CCCCC1)C(=O)N1CC[C@@](O)(Cn2cc(C(=O)N(C)C)c(-c3ccccc3F)cc2=O)C(C)(C)C1 [Example 205, 1-(((S)-1-((R)-3-Cyclohexyl-2-methylpropanoyl)-4-hydroxy-3,3-dimethylpiperidin-4-yl)methyl)-4-(2-fluorophenyl)-N,N-dimethyl-6-oxo-1,6-dihydropyridine-3-carboxamide]
< 500 nM | C[C@H](CC1CCCCC1)C(=O)N1CC[C@@](O)(Cn2cc(C(=O)N3CCNCC3)c(-c3ccccc3F)cc2=O)C(C)(C)C1 [Example 206, 1-(((S)-1-((R)-3-Cyclohexyl-2-methylpropanoyl)-4-hydroxy-3,3-dimethylpiperidin-4-yl)methyl)-4-(2-fluorophenyl)-5-(piperazine-1-carbonyl)pyridin-2(1 H)-one]
< 500 nM | C[C@H](CC1CCCCC1)C(=O)N1CC[C@@](O)(Cn2cc(C(=O)N3CCNC[C@H]3CO)c(-c3ccccc3)cc2=O)C(C)(C)C1 [Example 208, 1-(((S)-1-((R)-3-Cyclohexyl-2-methylpropanoyl)-4-hydroxy-3,3-dimethylpiperidin-4-yl)methyl)-5-((S)-2-(hydroxymethyl)piperazine-1-carbonyl)-4-phenylpyridin-2(1H)-one]
< 500 nM | C[C@H](CC1CCCCC1)C(=O)N1CC[C@@](O)(Cn2cc(C(=O)N(C)C)c(-c3ccccc3)cc2=O)C2(CCCC2)C1 [Example 211, 1-(((S)-7-((R)-3-Cyclohexyl-2-methylpropanoyl)-10-hydroxy-7-azaspiro[4.5]decan-10-yl)methyl)-N,N-dimethyl-6-oxo-4-phenyl-1,6-dihydropyridine-3-carboxamide]
< 500 nM | C[C@@H]1CN(C(=O)c2cn(C[C@]3(O)CCN(C(=O)[C@H](C)CC4CCCCC4)CC3(C)C)c(=O)cc2-c2ccccc2)CCN1 [Example 213, 1-(((S)-1-((R)-3-Cyclohexyl-2-methylpropanoyl)-4-hydroxy-3,3-dimethylpiperidin-4-yl)methyl)-5-((R)-3-methylpiperazine-1-carbonyl)-4-phenylpyridin-2(1 H)-one]
< 500 nM | C[C@H](CC1CCC1)C(=O)N1CC[C@@](O)(Cn2cc(C(=O)N(C)C)c(-c3ccccc3)cc2=O)C2(CCCC2)C1 [Example 214, 1-(((S)-7-((R)-3-Cyclobutyl-2-methylpropanoyl)-10-hydroxy-7-azaspiro[4.5]decan-10-yl)methyl)-N,N-dimethyl-6-oxo-4-phenyl-1,6-dihydropyridine-3-carboxamide]
< 500 nM | C[C@H](CC1CCC1)C(=O)N1CC[C@@](O)(Cn2cc(C(=O)N3CCNCC3)c(-c3ccccc3)cc2=O)C2(CCCC2)C1 [Example 215, 1-(((S)-7-((R)-3-Cyclobutyl-2-methylpropanoyl)-10-hydroxy-7-azaspiro[4.5]decan-10-yl)methyl)-4-phenyl-5-(piperazine-1-carbonyl)pyridin-2(1H)-one]
< 500 nM | C[C@H](CC(F)(F)F)C(=O)N1CC[C@@](O)(Cn2cc(C(=O)N(C)C)c(-c3ccccc3)cc2=O)C2(CCCC2)C1 [Example 216, 1-(((S)-10-Hydroxy-7-((R)-4,4,4-trifluoro-2-methylbutanoyl)-7-azaspiro[4.5]decan-10-yl)methyl)-N,N-dimethyl-6-oxo-4-phenyl-1,6-dihydropyridine-3-carboxamide]
< 500 nM | C[C@H](CC(F)(F)F)C(=O)N1CC[C@@](O)(Cn2cc(C(=O)N3CCNCC3)c(-c3ccccc3)cc2=O)C2(CCCC2)C1 [Example 217, 1-(((S)-10-Hydroxy-7-((R)-4,4,4-trifluoro-2-methylbutanoyl)-7-azaspiro[4.5]decan-10-yl)methyl)-4-phenyl-5-(piperazine-1-carbonyl)pyridin-2(1H)-one]
< 500 nM | C[C@H](CC1CCC1)C(=O)N1CC[C@@](O)(Cn2cc(C(=O)N(C)C)c(-c3ccccc3F)cc2=O)C2(CCCC2)C1 [Example 222, 1-(((S)-7-((R)-3-Cyclobutyl-2-methylpropanoyl)-10-hydroxy-7-azaspiro[4.5]decan-10-yl)methyl)-4-(2-fluorophenyl)-N,N-dimethyl-6-oxo-1,6-dihydropyridine-3-carboxamide]
< 500 nM | C[C@H](CC1CCC1)C(=O)N1CC[C@@](O)(Cn2cc(C(=O)N3CCNCC3)c(-c3ccccc3F)cc2=O)C2(CCCC2)C1 [Example 224, 1-(((S)-7-((R)-3-Cyclobutyl-2-methylpropanoyl)-10-hydroxy-7-azaspiro[4.5]decan-10-yl)methyl)-4-(2-fluorophenyl)-5-(piperazine-1-carbonyl)pyridin-2(1 H)-one]
< 500 nM | C[C@H](CC1CCCCC1)C(=O)N1CC[C@@](O)(Cn2cc(C(=O)N(C)C)c(-c3ccccc3F)cc2=O)C2(CCCC2)C1 [Example 226, 1-(((S)-7-((R)-3-Cyclohexyl-2-methylpropanoyl)-10-hydroxy-7-azaspiro[4.5]decan-10-yl)methyl)-4-(2-fluorophenyl)-N,N-dimethyl-6-oxo-1,6-dihydropyridine-3-carboxamide]
< 500 nM | C[C@H](CC1CCCCC1)C(=O)N1CC[C@@](O)(Cn2cc(C(=O)N3CCNCC3)c(-c3ccccc3F)cc2=O)C2(CCCC2)C1 [Example 227, 1-(((S)-7-((R)-3-Cyclohexyl-2-methylpropanoyl)-10-hydroxy-7-azaspiro[4.5]decan-10-yl)methyl)-4-(2-fluorophenyl)-5-(piperazine-1-carbonyl)pyridin-2(1 H)-one]
< 500 nM | C[C@H](CC1CCCCC1)C(=O)N1CC[C@@](O)(Cn2cc(C(=O)N3CCC(O)CC3)c(-c3ccccc3)cc2=O)C(C)(C)C1 [Example 228, 1-(((S)-1-((R)-3-Cyclohexyl-2-methylpropanoyl)-4-hydroxy-3,3-dimethylpiperidin-4-yl)methyl)-5-(4-hydroxypiperidine-1-carbonyl)-4-phenylpyridin-2(1 H)-one]
< 500 nM | C[C@H](CC1CCCCC1)C(=O)N1CC[C@@](O)(Cn2cc(C(=O)N(C)C)c(C3CC3)cc2=O)C2(CCCC2)C1 [Example 232, 1-(((S)-7-((R)-3-Cyclohexyl-2-methylpropanoyl)-10-hydroxy-7-azaspiro[4.5]decan-10-yl)methyl)-4-cyclopropyl-N,N-dimethyl-6-oxo-1,6-dihydropyridine-3-carboxamide]
< 500 nM | C[C@H](CC1CCCCC1)C(=O)N1CC[C@@](O)(Cn2cc(C(=O)N3CCNCC3)c(C3CC3)cc2=O)C2(CCCC2)C1 [Example 233, 1-(((S)-7-((R)-3-Cyclohexyl-2-methylpropanoyl)-10-hydroxy-7-azaspiro[4.5]decan-10-yl)methyl)-4-cyclopropyl-5-(piperazine-1-carbonyl)pyridin-2(1H)-one]
< 500 nM | C[C@H](CC1CCC1)C(=O)N1CC[C@@](O)(Cn2cc(C(=O)N3CCNCC3)c(-c3ccccc3F)cc2=O)C(C)(C)C1 [Example 236, 1-(((S)-1-((R)-3-Cyclobutyl-2-methylpropanoyl)-4-hydroxy-3,3-dimethylpiperidin-4-yl)methyl)-4-(2-fluorophenyl)-5-(piperazine-1-carbonyl)pyridin-2(1 H)-one]

Compound | IC50
C[C@H](CC1CCCCC1)C(=O)N1CC[C@@](O)(Cn2cc(C(=O)N3CCNCC3)c(-c3ccccc3)cc2=O)C2(CCCC2)C1 [Example 212, 1-(((S)-7-((R)-3-Cyclohexyl-2-methylpropanoyl)-10-hydroxy-7-azaspiro[4.5]decan-10-yl)methyl)-4-phenyl-5-(piperazine-1-carbonyl)pyridin-2(1H)-one] | < 500 nM
